Experimental data published in ChEMBL document CHEMBL5321275, “Discovery, Optimization, and Evaluation of Novel N-(Benzimidazol-5-yl)-1,3,4-thiadiazol-2-amine Analogues as Potent STAT3 Inhibitors for Cancer Treatment” (J Med Chem, 2023).
Activity calls are given as the source filed them. The rule behind the calls is not given here.

Columns and labels:
[1] = AUC (0 to infinity) in ICR mouse at 5 mg/kg, iv measured upto 96 hrs by HPLC-MS/MS analysis; type: ADME, organism-based; design: dose 5 mg/kg, time < 96 hrs, route iv; conditions: in vivo
[2] = target: T1, Signal transducer and activator of transcription 1-alpha/beta (Homo sapiens) (UniProt P42224); test: Inhibition of STAT1 phosphorylation in human DU-145 cells at 10 uM measured after 24 hrs by Western blot analysis; type: cell-based
T1 sequence (whole entry): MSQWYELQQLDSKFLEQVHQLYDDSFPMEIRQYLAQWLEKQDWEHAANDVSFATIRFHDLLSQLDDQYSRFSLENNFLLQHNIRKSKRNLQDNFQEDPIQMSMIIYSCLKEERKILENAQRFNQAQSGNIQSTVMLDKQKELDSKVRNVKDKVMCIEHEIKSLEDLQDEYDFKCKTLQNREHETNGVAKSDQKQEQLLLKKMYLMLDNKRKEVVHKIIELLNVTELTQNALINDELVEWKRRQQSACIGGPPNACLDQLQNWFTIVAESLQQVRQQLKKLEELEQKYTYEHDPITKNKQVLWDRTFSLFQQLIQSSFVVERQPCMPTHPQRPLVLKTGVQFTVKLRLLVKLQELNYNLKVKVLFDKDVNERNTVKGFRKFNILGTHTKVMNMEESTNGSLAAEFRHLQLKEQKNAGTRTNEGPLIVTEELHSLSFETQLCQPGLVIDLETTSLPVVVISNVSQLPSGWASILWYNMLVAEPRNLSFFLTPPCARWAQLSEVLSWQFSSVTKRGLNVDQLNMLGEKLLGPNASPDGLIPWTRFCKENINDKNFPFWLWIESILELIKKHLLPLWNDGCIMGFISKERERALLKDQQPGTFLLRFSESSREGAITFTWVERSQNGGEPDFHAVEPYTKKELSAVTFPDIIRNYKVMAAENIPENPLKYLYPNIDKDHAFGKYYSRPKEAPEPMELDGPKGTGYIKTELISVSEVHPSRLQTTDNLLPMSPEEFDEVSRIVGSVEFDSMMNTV

[3] = test system: MDA-MB-231; test: Induction of apoptosis in human MDA-MB-231 cells assessed as early apoptotic cells at 1 uM measured after 48 hrs by annexin V-FITC and PI staining based flow cytometry analysis (reference value: 6.7%); type: functional
[4] = test system: DU-145; test: Antiproliferative activity against human DU-145 cells assessed as inhibition of cell growth measured after 96 hrs by MTT assay; type: functional, cell-based; conditions: DU-145, 96 h
[5] = Clearance in ICR mouse at 50 mg/kg, po measured upto 96 hrs by HPLC-MS/MS analysis; type: ADME, organism-based; conditions: in vivo
[6] = test system: DU-145; test: Induction of apoptosis in human DU-145 cells assessed as induction of PARP cleavage at upto 10 uM measured after 48 hrs by […]; type: functional, cell-based

CN1CCN(c2cc3c(cc2Nc2nnc(-c4ccc(C(F)(F)F)cc4)s2)nc(-c2ccc(F)cc2)n3C2CC2)CC1
AUC(0-inf) [1]: 3450 ng·h/mL
inhibition [2]: inactive
Activity [3]: 5.9%
IC50 [4]: 2970 nM
CL/F [5]: 46.8 mL/min/kg
Activity [6]: Active
